{"source": "patent US20070191933A1", "about": "“Reduction of restenosis” (priority 2005, published 2007)", "origin": "cited, not measured here", "test_system": "circulating T-cells", "settings": "FIG. 1", "data": [{"substance": "alemtuzumab [Campath]", "values": [{"measurement": "time to full recovery of T-cells", "setting": "after a single dose", "value": "≥ 3", "unit": "months"}, {"measurement": "killing of circulating T-cells", "setting": "single dose", "value": "kill all circulating T-cells"}]}]}
